Legend:
Isocitrate lyase = Isocitrate lyase (Magnaporthe oryzae (strain 70-15 / FGSC 8958) (Rice blast fungus)(Pyricularia oryzae), UniProt P0CT06); assay: Inhibition of Magnaporthe grisea Guy 11 isocitrate lyase; parameters: species or system Pyricularia grisea
[1] = Inhibition of Magnaporthe grisea Guy 11 malate synthase; parameters: species or system Pyricularia grisea
Pyricularia grisea [2] = assay: Growth inhibition of Magnaporthe grisea Guy 11 in presence of glucose after 6 days; type: functional; details: Guy 11, 144 h
Pyricularia grisea [3] = assay: Growth inhibition of Magnaporthe grisea Guy 11 in presence of sodium acetate after 6 days; type: functional; details: Guy 11, 144 h
Pyricularia grisea [4] = assay: Reduction of appressorium formation in wild type Magnaporthe grisea Guy 11 after 14 hrs; type: functional, organism-based

Sequence of Isocitrate lyase (P0CT06 whole entry): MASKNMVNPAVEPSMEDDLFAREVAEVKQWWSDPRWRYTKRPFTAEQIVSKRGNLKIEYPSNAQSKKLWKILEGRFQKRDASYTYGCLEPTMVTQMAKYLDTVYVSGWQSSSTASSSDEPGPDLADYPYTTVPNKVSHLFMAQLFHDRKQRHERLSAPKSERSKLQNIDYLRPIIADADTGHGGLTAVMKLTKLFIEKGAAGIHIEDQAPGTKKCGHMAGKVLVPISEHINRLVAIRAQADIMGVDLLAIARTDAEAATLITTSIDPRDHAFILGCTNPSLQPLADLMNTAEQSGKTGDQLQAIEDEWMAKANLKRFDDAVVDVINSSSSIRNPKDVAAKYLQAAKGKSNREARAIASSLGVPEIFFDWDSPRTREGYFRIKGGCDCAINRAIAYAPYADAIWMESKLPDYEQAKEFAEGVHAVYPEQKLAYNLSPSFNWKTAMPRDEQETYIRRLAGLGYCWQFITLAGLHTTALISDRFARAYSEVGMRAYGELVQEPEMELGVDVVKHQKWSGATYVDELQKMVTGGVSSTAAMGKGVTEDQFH

| SMILES | IC50 (Isocitrate lyase) | IC50 [1] | MIC (Pyricularia grisea [2]) | MIC (Pyricularia grisea [3]) | Activity (Pyricularia grisea [4]) |
| --- | --- | --- | --- | --- | --- |
| O=C(O)CC[N+](=O)[O-] | 92.4 µM | 1570 µM | > 3360 µM | 2940 µM | – |
| CC1=CC[C@H]2C(C)(C)CCC[C@]2(C)[C@H]1C[C@@H](OS(=O)(=O)O)[C@H](C)CCC/C(C)=C/Cc1cc(O)ccc1O [HALISULFATE 1] | 12.6 µM | 227 µM | 701 µM | 87.7 µM | Dose-dependent effect |
| C=C1CCC[C@@H]2[C@@](C)(CCC(CCCc3ccoc3)COS(=O)(=O)O)[C@H](C)CC[C@]12C (some centres undefined) [HALISULFATE 5] | 67.4 µM | 1150 µM | 853 µM | 107 µM | Dose-dependent effect |
| CC1=CC[C@H]2C(C)(C)CCC[C@]2(C)[C@H]1C[C@@H](O)[C@H](C)CCC/C(C)=C/Cc1cc(O)ccc1O [HYDROHALISULFATE 1] | 15 µM | 274 µM | 843 µM | 105 µM | Dose-dependent effect |
